{"source": "patent US20240016784A1", "about": "“Y BOX BINDING PROTEIN 1 INHIBITORS” (Oregon Health & Science University, priority 2020, published 2024)", "key": {"[1]": {"assay": "Tolerability of SU056 at increasing concentrations", "type": "in vivo", "details": "for death: different concentration; for tolerability: increasing concentrations", "source_text": "FIGS. 15A-15E. […] SU056 treatment at increasing concentrations dose not challenge the dietary behavior as reflected by change in body weight FIG. 15A) Mice and FIG. 15B) Rat. […] Liver microsomes were used for the purpose of metabolic profiling."}, "ID-8 tumor xenograft": {"tested_on": "ID-8 tumor xenograft", "assay": "ID8 syngeneic ovarian tumor model, tumor growth and lung metastasis", "type": "in vivo, C57BL/6 mice", "description": "(§1) These promising results led us to test SU093 and SU056 in vivo. C57BL/6 mice were implanted with 2×10^6 firefly luciferase (luc+)-expressing ID-8 syngeneic ovarian cancer cells subcutaneously. Once the tumors reached 100 mm^3 in size, we began daily intraperitoneal treatment with SU093 and SU056 at 20 mg/kg (vehicle control 30% PEG-300 in saline). Tumor growth was monitored via bioluminescence imaging (IVIS).\nDue to prior observation of a significant reduction in the migratory ability of OC cells treated with the two drugs (FIG. 1H), we also measured the effect of drug treatment on ovarian cancer metastases. At the end of above experiment, lungs were fixed and metastatic foci were counted under the dissecting microscope followed by H&E staining.\n(§2) In vivo xenograft model and drug efficacy study: All animal experiments were reviewed and approved by the Animal Care and Use Committee of Stanford University, CA, USA. Luciferase tagged ID8 (2×10^6) or OVCAR8 (5×10^6) cells were implanted into the right flank of 6-7-week-old female C57BL/6 mice and NOD/SCID mice, respectively. Respective treatment began after tumors grew to 100-200 mm^3 diameters. The ID8 syngeneic mice model was treated with a vehicle (30% PEG-300 in saline), 20 mg/kg SU093, and 20 mg/kg SU056 intraperitoneally (IP) daily for 42 days. At the end of treatment, blood was collected from each mouse and analyzed for liver toxicity parameters, including Alanine Aminotransferase (ALT), Aspartate Aminotransferase (AST), and Alkaline Phosphatase (ALKP). OVCAR8 xenograft mice model was treated with vehicle (30% PEG-300 in saline), 5 mg/kg paclitaxel (once a week), 10 mg/kg SU056 (daily), a combination of paclitaxel (5 mg/kg, once a week) and SU056 (10 mg/kg, daily) for 4 weeks. Mice from both studies were euthanized, the tumor and different organs were collected and fixed in neutral buffered formalin and further processed for immunohistochemical analysis.\nFIGS. 2A-2F. SU093 and SU056 inhibit mice ovarian ID-8 tumor xenograft growth in C57BL/6 mice. Mice were subcutaneously injected with ID-8 cells mixed with Matrigel in 1:1 ratio and the drug treatment started when tumors reached 100 mm^3. […] FIG. 2B) Tumor volume/mouse as a function of time. […] FIG. 2C) Tumor weight/mouse at the end of the study. […] FIG. 2D) Liver toxicity parameters at the end of 42 days showing no significant difference between control, SU093, and SU056. FIGS. 2E-2F) Lung metastasis assay. FIG. 2E) H&E staining of the lung (red arrow indicates the metastasis from ID8 xenograft). Scale bar, 250 μm. FIG. 2F) No. of lung metastatic nodules."}, "[2]": {"assay": "Liver toxicity parameters (ALT, AST, ALKP) in ID8 study", "type": "in vivo, C57BL/6 mice", "details": "20 mg/kg daily IP, 42 days", "description": "as §1\nas §2, with “OVCAR8 xenograft mice model was treated with vehicle (30% PEG-300 in saline), 5 mg/kg paclitaxel (once a week), 10 mg/kg SU056 (daily), a combination of paclitaxel (5 mg/kg, once a week) and SU056 (10 mg/kg, daily) for 4 weeks. Mice from both studies were euthanized, the tumor and different organs were collected and fixed in neutral buffered formalin and further processed for immunohistochemical analysis.” left out"}, "[3]": {"tested_on": "OVCAR8, SKOV3, and ID8 cells", "assay": "Cell cycle analysis (propidium iodide, flow cytometry)", "type": "cell-based", "description": "To determine whether proliferation inhibition was the dominant factor driving the reduction in OC viability seen with AzP treatment, we used propidium iodide and annexin-FITC stains with flow cytometry to measure the distribution of cell cycle phases after treatment. […] Furthermore, in the Boyden chamber assay for cell migration, SU093 inhibited cell migration by 40-46% (1 μM, P<0.05) in different OC cell lines.\nCell cycle analysis: 30,000 OC cells were plated in each well of 12 well plates and incubated for 24 h. […] Both live and dead cells were collected via trypsinization and cell pellets were fixed with 70% ethanol. Fixed cells were stained using propidium iodide (PI) cocktail (80 μg/mL RNase A and 50 μg/mL PI in saponin-EDTA solution) and incubated at 4° C. overnight. Each sample was analyzed using a Guava® easyCyte™ Flow Cytometer (Millipore, Burlington, MA). FlowJo software calculated the % cells in each cell cycle phase.\nFIG. 1A) Lead optimization of SU093 to obtain SU056. FIG. 1B) IC50 values of SU093 and SU056 on various ovarian cancer cells. Clonogenic survival of OC cells treated with SU093 or SU056. […] FIG. 1C) Representative colony formation from respective wells. FIG. 1D) Number of colonies formed after SU093 and SU056 treatment. […] FIG. 1F) Cell cycle distribution of propidium iodide (PI)-stained OVCAR8, SKOV3, and ID8 cells. […] FIG. 1G) Effects of SU093 and SU056 on apoptotic cell death analyzed by Annexin-FITC staining. […] FIG. 1H) Cell migration assay."}, "CALM3": {"target": "T1, CALM3 (Homo sapiens, UniProt P0DP25)", "T1 construct": "endogenous in cells; host or cells: OVCAR8", "assay": "Cellular Thermal Shift Assay (CETSA) in OVCAR8 cells", "type": "binding", "details": "SU056 2.5 μM, 1.5 h, read-out: increase in thermal stability (Tm shift) of CALM3", "description": "The cellular thermal shift assay (CETSA) is based on the principle of protein-ligand interactions causing a shift in protein thermal stability (Savitski et al., 2014). When a protein interacts with ligand, its thermal stability increases, and this principle allows identification of which protein targets that are engaged by small molecules or drug candidates. We used this assay to identify protein targets of SU056. OVCAR8 cells were treated with SU056 (2.5 μM) for 1.5 h, and protein lysates were analyzed for a thermal shift. The heat maps represent the thermal stability of 804 soluble proteins in the presence and absence of SU056 compare with 37° C. (FIG. 3A).\nCellular Thermal Shift Assay (CETSA): The assay was performed as previously described (Savitski et al., 2014). Briefly, OVCAR8 cells were treated with vehicle (DMSO) or SU056 (2.5 μM) at 70-80% confluency for 1.5 h. Cells were harvested and washed with 1×PBS twice. Cells were pelleted and resuspended in PBS. 10 different PCR tubes with 1×10^6 cells/tube (in 100 μL PBS) were prepared for both the groups. Tubes were exposed to respective temperatures (37, 41, 44, 47, 50, 53, 56, 59, 63, 67° C.) for 3 min using a thermal cycler (Bio-Rad, CA, USA) followed by 2 min incubation at room temperature."}, "[4]": {"tested_on": "OVCAR8 and SKOV-3 OC cell lines", "assay": "MTT combination study of SU056 and paclitaxel", "type": "cell-based, human", "details": "paclitaxel at 0.1, 0.5, and 1 nM doses", "protocol": "Cell viability assay: Cell viability was assessed using the standard MTT assay protocol. In brief, 5,000 cells were plated in each well of 96 well plates (Corning-Costar, #3598) and allowed to attach for 24 h. Cells were treated with a respective concentration of compounds for respective time points. A stock solution of each compound was prepared in DMSO. DMSO concentration was kept constant and maintained below 0.1%. After each incubation, 50 μL of 0.5 mg/ml MTT solution prepared in 1×PBS was added to each well followed by 1 h incubation at 37° C. and 5% CO2. MTT solution and media were then removed, and MTT formazan crystals were dissolved in 100 μL of DMSO per well. Absorbance at 570 nm for each well was recorded using a multimode plate reader to quantitate MTT crystallization. Each absorbance value was normalized to controls and converted into percent cell viability.\nCombination index calculation: The combination index (CI) for paclitaxel and SU093 or SU056 was calculated using the Chou-Talalay Method (Chou, 2010). CI values were computed via CampuSyn software. CI<1, CI=1, and CI>1 indicate the synergistic, additive and antagonistic effect of the combination.\nCombination index values for paclitaxel and SU056. […] Scale bar, 250 μm FIG. 7E) Spheroid formation was quantified after 7 days of incubation. […] Tumor sections were stained with Ki67, and slides were scored for K167 staining. […]"}}}
{"smiles": "O=C1OCC2=C1C(c1cccc(F)c1)c1cc3c(cc1N2CCO)OCO3", "note": "(stereo not drawn) [SU056, 9-(3-fluorophenyl)-5-(2-hydroxyethyl)-6,9-dihydro-[1,3]dioxolo[4,5-g]furo[3,4-b]quinolin-8(5H)-one]", "values": [{"measurement": "death", "setting": "[1]; mice", "result": "did not cause death"}, {"measurement": "tolerability", "setting": "[1]; mice", "result": "well tolerated"}, {"measurement": "death", "setting": "[1]; rat", "result": "did not cause death"}, {"measurement": "tolerability", "setting": "[1]; rat", "result": "well tolerated"}, {"measurement": "reduction in lung metastases", "setting": "ID-8 tumor xenograft; 20 mg/kg daily IP, 42 days, histological scoring", "result": 3, "unit": "fold"}, {"measurement": "reduction in tumor weight", "setting": "ID-8 tumor xenograft; 20 mg/kg daily IP, at 42 days", "result": 2, "unit": "fold"}, {"measurement": "tumor progression vs vehicle control", "setting": "ID-8 tumor xenograft; 20 mg/kg daily intraperitoneal, bioluminescence imaging", "result": "significantly delay the tumor progression"}, {"measurement": "impact on blood chemistry indicators (AST, ALT, alkaline phosphatase)", "setting": "[2]", "result": "no significant impact"}, {"measurement": "cell cycle distribution", "setting": "[3]; 12 h treatment, PI-stained OVCAR8, SKOV3, ID8", "result": "G1 phase arrest"}, {"measurement": "cell cycle arrest, comparison of SU056 with SU093", "setting": "[3]; OC lines", "result": "greater cell cycle arrest than SU093"}, {"measurement": "ΔTm at 2.5 µM", "setting": "CALM3", "result": "4.03 ± 1.07", "unit": "°C"}, {"measurement": "effect on cytotoxic effects of paclitaxel (MTT)", "setting": "[4]", "result": "significantly potentiates the cytotoxic effects of paclitaxel"}]}
